The subject of series [1] is SUDHL10. Put plainly: Induction of caspase-3/7 activity (Assay 4), SUDHL10. Format: cell-based. To be noted: SUDHL10 cells. A digest of the protocol:
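SUDHL10 DLBCL cells treated with compounds for 3 hours at 37 °C in a humidified incubator. Caspase-3/7 activity read with Caspase-Glo 3/7 luminescent reagent. Medium-only background subtracted from all values.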

In series [2] the test system is SUDHL5. Put plainly: Induction of caspase-3/7 activity (Assay 4), SUDHL5. Type of series: cell-based. To be noted: SUDHL5 cells. A digest of the protocol:
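DLBCL cells treated with compounds for 3 hours at 37° C. Caspase-3/7 activity measured by Caspase-Glo 3/7 luminescence, with medium-only background subtracted.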

The subject of series [3] is SUDHL10. The series is described as follows: Induction of cytotoxicity (Assay 6), SUDHL10.
Protocol: Assay 6 Induction of Cytotoxicity Upon Treatment of Cells with Selected Compounds
Therefore, cytotoxicity assays were run in parallel in SUDHL5 and SUDHL10 cells.
The different cell lines were plated in culture medium (RPMI 1640 [GIBCO #22400-089]supplemented with 10% Fetal Bovine Serum) at a density of 3,300 cells in 30 μL/well in a sterile, solid black, flat bottom, polystyrene, TC-treated 384-well microplate (Corning #3571) using Multidrop Combi Reagent Dispenser. As a control, medium without cells was also added to the plate. Cells were incubated in a humidified incubator at 37° C. overnight. […] Rim wells were excluded. The cells were incubated for 5 hours in a humidified incubator at 37° C. After this incubation, 30 μL of CellTiter-Glo® Luminescent Cell Viability reagent (Promega, G7573) was added to each well using the Multidrop Combi Reagent Dispenser, followed by 15 minutes incubation on a shaker at room temperature. Finally, luminescence was read at 0.1 ms, with a gain of 3000 using the PHERAstar FS microplate reader (BMG Labtech).
The test system of the next series is AMO-1. The series is described as follows: Antiproliferation assay 7, AMO-1. Format: cell-based. The settings on record: AMO-1 cells, CellTiter-Glo, read-out: Antiproli AMO-1 IC50 median. A digest of the protocol:
(§1)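 Luminescent ATP-based viability (CellTiter-Glo) measured after 72 hours of compound treatment at 37° C, alongside a time-zero plate read on the day of plating.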
In general terms: ATP-based viability assays read luminescence as a measure of living cells.

The next series has as its system HMC-1-8. Put plainly: Antiproliferation assay 7, HMC-1-8. Type of series: cell-based. To be noted: HMC-1-8 cells, CellTiter-Glo, read-out: Antiproli HMC-1-8 IC50 median. As to the method: Assessment of the Anti-Proliferative Effect of Compounds in Different Cell Lines
The impact of compounds on the proliferation of different cell lines was assessed using the CellTiter-Glo® Luminescent Cell Viability reagent from Promega (G7573).
In parallel, cells were plated in a reference (day 0) plate for time zero determination.
Rim wells were excluded. The cells were incubated for 72 hours in a humidified incubator at 37° C. The day 0 plate was measured by adding 30 μL/well of CTG solution (CellTiter-Glo® Luminescent Cell Viability reagent, Promega G7573) to time zero wells in the reference plate followed by a 10 minutes incubation and luminescence reading at 0.1 ms. using the PHERAstar FS microplate reader (BMG Labtech).
After 72 hours incubation, the treated plates were measured in the same way as the day 0 plate mentioned above.

For a further series, the system named is MV-4-11. Put plainly: Antiproliferation assay 7, MV-4-11. To be noted: MV-4-11 cells, CellTiter-Glo, read-out: Antiproli MV-4-11 IC50 median. Type of series: cell-based. A digest of the protocol: as §1
For series [4], the system named is SUDHL5. The series is described as follows: Antiproliferation assay 7, SUDHL5. Format: cell-based. The settings on record: SUDHL5 cells, CellTiter-Glo, read-out: Antiproli SUDHL5 IC50 (median). A digest of the protocol: as §1
Series [5] deals with SUDHL5. The series is described as follows: Induction of cytotoxicity (Assay 6), SUDHL5.
Setting [6] is: 3 hours, Caspase-Glo 3/7, read-out: Caspase SUDHL10 EC50 (median).
The mark [7] stands for this setting: 3 hours, Caspase-Glo 3/7, read-out: Caspase SUDHL5 EC50 (median).
[8] abbreviates: read-out: Cytotox SUDHL10 IC50 (median), SUDHL10 cells, 5 hours, CellTiter-Glo.
Where [9] appears, read: read-out: Cytotox SUDHL5 IC50 (median), SUDHL5 cells, 5 hours, CellTiter-Glo.
[10] abbreviates: Homo sapiens, SU-DHL-5, 3 h, Caspase-Glo 3/7, read-out: Caspase SUDHL5 EC50 (median).
The mark [11] stands for this setting: Homo sapiens, SU-DHL-5, 5 h, read-out: Cytotox SUDHL5 IC50 (median), SUDHL5 cells, 5 hours, CellTiter-Glo.

A word on the EC50: it is the midpoint of the concentration-response curve. What is called IC50 is the concentration that gives 50% inhibition.

SMILES strings stand for the structures. Structures can show the parent of a compound that is named as a salt. Where two headings read alike, the source gives them in different places.

For the compound `CCc1c2c(nn1C)CN(C)CCCCn1c(C(=O)O)c(CCCOc3cccc4cc(F)ccc34)c3ccc(Cl)c-2c31` (single isomer, unassigned; enantiomer 1) [Example 6, 4-chloro-3-ethyl-7-{3-[(6-fluoronaphthalen-1-yl)oxy]propyl}-2,14-dimethyl-10,11,12,13,14,15-hexahydro-2H-pyrazolo[3′,4′:8,9][1,6]diazacycloundecino[10,11,1-hi]indole-8-carboxylic Acid (Enantiomer 1)], the EC50 in the series on SUDHL10 [1] (setting [6]) is 340 nM; in the series on SUDHL5 [2] (setting [7]), 130 nM. Also, the half-inhibitory concentration (IC50) in the series with SUDHL10 [3] (setting [8]) was found to be 350 nM; in the series with AMO-1 (72 hours), 369 nM; in the series on HMC-1-8 (72 h), 1210 nM; in the series on MV-4-11 (72 hours), 79.4 nM; in the series on SUDHL5 [4] (72 hours), 230 nM; in the series with SUDHL5 [5] (setting [9]), 190 nM.

In the case of `Cc1c2c(nn1C)COCCCCn1c(C(=O)O)c(CCCOc3cccc4cc(F)ccc34)c3ccc(Cl)c-2c31` (single isomer, unassigned; enantiomer 1) [Example 16, (−)-4-chloro-7-{3-[(6-fluoronaphthalen-1-yl)oxy]propyl}-2,3-dimethyl-2,10,11,12,13,15-hexahydropyrazolo[4′,3′:9,10][1,6]oxazacycloundecino[8,7,6-hi]indole-8-carboxylic Acid (Enantiomer 1)], the concentration giving a half-maximal response (EC50) was 380 nM in the series on SUDHL10 [1] (Homo sapiens, SU-DHL10, 3 h, Caspase-Glo 3/7, read-out: Caspase SUDHL10 EC50 (median)) and 150 nM in the series with SUDHL5 [2] (setting [10]). Moreover, the IC50 in the series with SUDHL10 [3] (Homo sapiens, SU-DHL10, 5 h, read-out: Cytotox SUDHL10 IC50 (median), SUDHL10 cells, 5 hours, CellTiter-Glo) stood at 660 nM; in the series on AMO-1 (Homo sapiens, AMO1, 72 h), 519 nM; in the series with HMC-1-8 (72 h) it was 1250 nM; with MV-4-11 (Homo sapiens, MV4-11, 72 h) it was 524 nM; with SUDHL5 [4] (Homo sapiens, SU-DHL-5, 72 h), 210 nM; in the series on SUDHL5 [5] (setting [11]), 220 nM.

Turning to `CCc1c2c(nn1C)CN(C)CCCCn1c(C(=O)O)c(CCCOc3cccc4ccccc34)c3ccc(Cl)c-2c31` (single isomer, unassigned; enantiomer 1) [Example 23, 4-chloro-3-ethyl-2,14-dimethyl-7-[3-(naphthalen-1-yloxy)propyl]-10,11,12,13,14,15-hexahydro-2H-pyrazolo[3′,4′:8,9][1,6]diazacycloundecino[10,11,1-hi]indole-8-carboxylic Acid (Enantiomer 1)], the EC50 with SUDHL5 [2] (setting [7]) was determined as 92 nM. Moreover, the IC50 came to 310 nM with SUDHL10 [3] (setting [8]); 613 nM in the series on AMO-1 (Homo sapiens, AMO1, 72 h); 5160 nM with HMC-1-8 (72 h); 387 nM in the series with MV-4-11 (72 hours); 140 nM with SUDHL5 [5] (setting [9]).

For `CCc1nn(C)c2c1-c1c(Cl)ccc3c(CCCOc4cccc5cc(F)ccc45)c(C(=O)O)n(c13)CCCCOC2` (single isomer, unassigned; enantiomer 1) [Example 34, (+)-4-chloro-3-ethyl-7-{3-[(6-fluoronaphthalen-1-yl)oxy]propyl}-1-methyl-1,10,11,12,13,15-hexahydropyrazolo[4′,3′:9,10][1,6]oxazacycloundecino[8,7,6-hi]indole-8-carboxylic Acid (Enantiomer 1)], the EC50 in the series with SUDHL5 [2] (setting [7]) was 380 nM. In addition, the IC50 with AMO-1 (72 hours) was 1410 nM; with HMC-1-8 (72 h), 2030 nM; with MV-4-11 (72 hours), 1260 nM; with SUDHL5 [4] (72 hours), 620 nM; with SUDHL5 [5] (setting [9]), 530 nM.

As to `CCc1c2c(nn1C)COCCCCn1c(C(=O)O)c(CCCOc3cccc4cc(F)ccc34)c3ccc(Cl)c-2c31` (single isomer, unassigned; enantiomer 1) [Example 37, (+)-4-chloro-3-ethyl-7-{3-[(6-fluoronaphthalen-1-yl)oxy]propyl}-2-methyl-2,10,11,12,13,15-hexahydropyrazolo[4′,3′:9,10][1,6]oxazacycloundecino[8,7,6-hi]indole-8-carboxylic acid-N-ethylethanamine Salt (Enantiomer 1)], the EC50 with SUDHL5 [2] (setting [7]) came out at 170 nM. In addition, the IC50 in the series on AMO-1 (72 hours) was 363 nM; with HMC-1-8 (72 h) it was 1130 nM; in the series on MV-4-11 (72 hours), 377 nM; with SUDHL5 [4] (72 hours), 280 nM; with SUDHL5 [5] (setting [9]), 200 nM.

Turning to `CCc1nn(C)c2c1-c1c(Cl)ccc3c(CCCOc4cccc5cc(F)ccc45)c(C(=O)O)n(c13)CCCCN(C)C2` (single isomer, unassigned; enantiomer 1) [Example 40, 4-chloro-3-ethyl-7-{3-[(6-fluoronaphthalen-1-yl)oxy]propyl}-1,14-dimethyl-10,11,12,13,14,15-hexahydro-1H-pyrazolo[3′,4′:8,9][1,6]diazacycloundecino[10,11,1-hi]indole-8-carboxylic Acid (Enantiomer 1)], the results for the EC50 in the series with SUDHL10 [1] (setting [6]) and with SUDHL5 [2] (setting [7]) were 310 nM and 140 nM, respectively. The IC50 in the series on SUDHL10 [3] (setting [8]) amounted to 290 nM; in the series on AMO-1 (72 hours), 539 nM; in the series with HMC-1-8 (72 h), 695 nM; in the series with MV-4-11 (72 hours) it was 95.5 nM; with SUDHL5 [4] (72 hours) it was 150 nM; in the series with SUDHL5 [5] (setting [9]), 110 nM.

On to `Cc1c2c(nn1C)COCC(F)(F)CCn1c(C(=O)O)c(CCCOc3cccc4ccccc34)c3ccc(Cl)c-2c31` (single isomer, unassigned; enantiomer 2) [Example 57, 4-chloro-12,12-difluoro-2,3-dimethyl-7-{3-[(naphthalen-1-yl)oxy]propyl}-2,10,11,12,13,15-hexahydropyrazolo[4′,3′:9,10][1,6]oxazacycloundecino[8,7,6-hi]indole-8-carboxylic acid-N-ethylethanamine Salt—Enantiomer 2], for which the EC50 amounted to 13000 nM in the series on SUDHL10 [1] (setting [6]) and 7600 nM in the series with SUDHL5 [2] (setting [7]). Moreover, the IC50 in the series with SUDHL10 [3] (setting [8]) stood at 10000 nM; in the series on AMO-1 (72 hours), 11800 nM; with HMC-1-8 (72 hours) it was 8680 nM; in the series with SUDHL5 [4] (72 hours) it was 3900 nM; with SUDHL5 [5] (setting [9]), 6900 nM.

Turning to `Cc1c2c(nn1C)CN(CC(F)(F)F)CCCCn1c(C(=O)O)c(CCCOc3cccc4cc(F)ccc34)c3ccc(Cl)c-2c31` (single isomer, unassigned; enantiomer 2) [Example 60, 4-chloro-7-{3-[(6-fluoronaphthalen-1-yl)oxy]propyl}-2,3-dimethyl-14-(2,2,2-trifluoroethyl)-10,11,12,13,14,15-hexahydro-2H-pyrazolo[3′,4′:8,9][1,6]diazacycloundecino[10,11,1-hi]indole-8-carboxylic Acid—Enantiomer 2], the 50% effective concentration (EC50) came to 27000 nM with SUDHL10 [1] (setting [6]) and 9000 nM in the series on SUDHL5 [2] (setting [7]). The IC50 with SUDHL10 [3] (setting [8]) was 26000 nM; in the series with AMO-1 (72 hours), 25500 nM; in the series with HMC-1-8 (72 hours), > 30000 nM; in the series with SUDHL5 [4] (72 hours) it was 20000 nM; in the series on SUDHL5 [5] (setting [9]) it was 12000 nM.

For the compound `Cc1c2c(nn1C)OCCCCCn1c(C(=O)O)c(CCCOc3cccc4cc(F)ccc34)c3ccc(Cl)c-2c31` (single isomer, unassigned; enantiomer 2) [Example 85, 4-chloro-7-{3-[(6-fluoronaphthalen-1-yl)oxy]propyl}-2,3-dimethyl-11,12,13,14-tetrahydro-2H,10H-pyrazolo[3′,4′:2,3][1,6]oxazacycloundecino[4,5,6-hi]indole-8-carboxylic Acid—Enantiomer 2], the EC50 with SUDHL10 [1] (setting [6]) was found to be 25000 nM; in the series with SUDHL5 [2] (setting [7]), 9700 nM. Moreover, the IC50 is 25000 nM with SUDHL10 [3] (setting [8]); 6100 nM in the series with AMO-1 (72 hours); > 30000 nM in the series with HMC-1-8 (72 hours); 13000 nM in the series on SUDHL5 [4] (72 hours); 17000 nM with SUDHL5 [5] (setting [9]).

`Cc1c2c(nn1C)COCC1CCC1Cn1c(C(=O)O)c(CCCOc3cccc4ccccc34)c3ccc(Cl)c-2c31` (single isomer, unassigned; stereoisomer 1) [Example 63]: the figures for the EC50 with SUDHL10 [1] (setting [6]) and in the series on SUDHL5 [2] (setting [10]) were 3100 nM and 1400 nM, respectively. Further, the IC50 was determined as 3300 nM in the series with SUDHL10 [3] (setting [8]); 2560 nM in the series with AMO-1 (72 hours); 7850 nM with HMC-1-8 (72 h); 2600 nM in the series on SUDHL5 [4] (Homo sapiens, SU-DHL-5, 72 h); 1500 nM in the series with SUDHL5 [5] (setting [11]).

Source of the values: US11447504B2, “Macrocyclic chlorine substituted indole derivatives” (Bayer Aktiengesellschaft, priority 2017, dated 2022).
